Assay results reported in ChEMBL document CHEMBL1201862, “PubChem BioAssay data set” (2004).
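48-hour exposure; five concentrations; linearly interpolated endpoints. GI50 = concentration required for 50% inhibition of growth.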 Activity calls are given as the source filed them. No stated cut-off is given here; in the data, active = GI50 up to about 1.1 µM and inactive = higher.

How the values were obtained:
Assay in all cases: NCI tumour cell line growth inhibition, 48 h
[1] = tested on: OVCAR-4
[2] = tested on: HCT-15
[3] = tested on: LOX IMVI
[4] = tested on: CCRF-CEM
[5] = tested on: UO-31
[6] = tested on: MDA-MB-435
[7] = tested on: MDA-MB-231
[8] = tested on: Hs-578T
[9] = tested on: UACC-257
[10] = tested on: HCC 2998
[11] = tested on: T47D
[12] = tested on: KM12
[13] = tested on: NCI-H226
[14] = tested on: HT-29
[15] = tested on: A549
[16] = tested on: SF-268
[17] = tested on: OVCAR-5
[18] = tested on: A498
[19] = tested on: SK-OV-3
[20] = tested on: SK-MEL-2
[21] = tested on: OVCAR-3
[22] = tested on: IGROV-1
[23] = tested on: ACHN
[24] = tested on: M14
[25] = tested on: SNB-19
[26] = tested on: SK-MEL-28
[27] = tested on: DU-145
[28] = tested on: 786-0
[29] = tested on: SK-MEL-5
[30] = tested on: TK-10
[31] = tested on: RPMI-8226
[32] = tested on: BT-549
[33] = tested on: SN12C
[34] = tested on: COLO 205
[35] = tested on: HOP-62
[36] = tested on: CAKI-1
[37] = tested on: HOP-92
[38] = tested on: NCI-H460
[39] = tested on: PC-3
[40] = tested on: HCT-116
[41] = tested on: RXF 393
[42] = tested on: UACC-62
[43] = tested on: Malme-3M
[44] = tested on: U-251
[45] = tested on: OVCAR-8
[46] = tested on: SF-295
[47] = tested on: NCI-H23
[48] = tested on: SNB-75
[49] = tested on: NCI/ADR-RES
[50] = tested on: SF-539
[51] = tested on: EKVX
[52] = tested on: NCI-H522
[53] = tested on: MCF7
[54] = tested on: MOLT-4
[55] = tested on: SW-620
[56] = tested on: K562

In the case of `CCOC(=O)c1sc2nc(SC)nc3c2c1NCN3C1CC1`, the GI50 [1] is reported as > 100 µM (inactive), the GI50 [2] is reported as greater than 100 µM and the GI50 [3] is reported as > 100 µM (inactive). For the same compound, the GI50 [4] was > 100 µM (inactive), the GI50 [5] was > 100 µM (inactive) and the GI50 [6] was > 100 µM (inactive). The GI50 [7] was > 100 µM (inactive), the GI50 [8] was 74.5 µM (inactive) and the GI50 [9] was > 100 µM (inactive). For the same compound, the GI50 [10] was > 100 µM (inactive), the GI50 [11] was 48.6 µM (inactive) and the GI50 [12] was > 100 µM (inactive). For the same compound, the GI50 [13] was > 100 µM (inactive), the GI50 [14] was > 100 µM (inactive) and the GI50 [15] was > 100 µM (inactive). The GI50 [16] was > 100 µM (inactive), the GI50 [17] was > 100 µM (inactive) and the GI50 [18] was > 100 µM (inactive). The GI50 [19] was > 100 µM (inactive), the GI50 [20] was > 100 µM (inactive) and the GI50 [21] was > 100 µM (inactive). The GI50 [22] was > 100 µM (inactive), the GI50 [23] was > 100 µM (inactive) and the GI50 [24] was > 100 µM (inactive). The GI50 [25] was > 100 µM (inactive), the GI50 [26] was > 100 µM (inactive) and the GI50 [27] was > 100 µM (inactive). The GI50 [28] was 48.2 µM (inactive), the GI50 [29] was > 100 µM (inactive) and the GI50 [30] was > 100 µM (inactive). The GI50 [31] was > 100 µM (inactive), the GI50 [32] was > 100 µM (inactive) and the GI50 [33] was > 100 µM (inactive). For the same compound, the GI50 [34] was > 100 µM (inactive), the GI50 [35] was > 100 µM (inactive) and the GI50 [36] was > 100 µM (inactive). For the same compound, the GI50 [37] was > 100 µM (inactive), the GI50 [38] was > 100 µM (inactive) and the GI50 [39] was > 100 µM (inactive). The GI50 [40] was > 100 µM (inactive), the GI50 [41] was > 100 µM (inactive) and the GI50 [42] was > 100 µM (inactive). For the same compound, the GI50 [43] was > 100 µM (inactive), the GI50 [44] was > 100 µM (inactive) and the GI50 [45] was 36.6 µM (inactive). For the same compound, the GI50 [46] was > 100 µM (inactive), the GI50 [47] was > 100 µM (inactive) and the GI50 [48] was 38.8 µM (inactive). The GI50 [49] was > 100 µM (inactive).

For `CCC/C(C)=N/NC(=S)SC.CCC/C(C)=N/NC(=S)SC.[Zn+2]`, the GI50 [1] was 14.1 µM (inactive), the GI50 [2] was 2.24 µM and the GI50 [50] was 13.7 µM (inactive). The GI50 [3] was 1.48 µM (inactive), the GI50 [4] was 2.16 µM (inactive) and the GI50 [5] was 11 µM (inactive). For the same compound, the GI50 [6] was 11.4 µM (inactive), the GI50 [7] was 1.7 µM (inactive) and the GI50 [8] was 15.7 µM (inactive). The GI50 [51] was 15 µM (inactive), the GI50 [9] was 7.46 µM (inactive) and the GI50 [52] was 11.3 µM (inactive). The GI50 [53] was 7.24 µM (inactive), the GI50 [54] was 1.47 µM (inactive) and the GI50 [11] was 11.5 µM (inactive). For the same compound, the GI50 [12] was 11.5 µM (inactive), the GI50 [13] was 12.6 µM (inactive) and the GI50 [14] was 3.07 µM (inactive). The GI50 [15] was 12.6 µM (inactive), the GI50 [16] was 14.1 µM (inactive) and the GI50 [17] was 10.3 µM (inactive). The GI50 [18] was 22.2 µM (inactive), the GI50 [19] was 16.2 µM (inactive) and the GI50 [20] was 13.9 µM (inactive). The GI50 [21] was 10.2 µM (inactive), the GI50 [22] was 2.56 µM (inactive) and the GI50 [23] was 9.08 µM (inactive). For the same compound, the GI50 [24] was 11.1 µM (inactive), the GI50 [25] was 16.2 µM (inactive) and the GI50 [55] was 9.44 µM (inactive). For the same compound, the GI50 [26] was 16 µM (inactive), the GI50 [27] was 12 µM (inactive) and the GI50 [28] was 10.9 µM (inactive). The GI50 [29] was 11.2 µM (inactive), the GI50 [56] was 16.6 µM (inactive) and the GI50 [30] was 11.6 µM (inactive). The GI50 [31] was 1.98 µM (inactive), the GI50 [32] was 10.6 µM (inactive) and the GI50 [33] was 2.94 µM (inactive). The GI50 [34] was 14.2 µM (inactive), the GI50 [35] was 9.75 µM (inactive) and the GI50 [36] was 13.7 µM (inactive). The GI50 [38] was 16 µM (inactive), the GI50 [39] was 12.4 µM (inactive) and the GI50 [40] was 10.4 µM (inactive). For the same compound, the GI50 [41] was 17.1 µM (inactive), the GI50 [42] was 10.9 µM (inactive) and the GI50 [43] was 2.9 µM (inactive). The GI50 [44] was 1.84 µM (inactive), the GI50 [45] was 1.89 µM (inactive) and the GI50 [46] was 3.15 µM (inactive). For the same compound, the GI50 [47] was 13.7 µM (inactive), the GI50 [48] was 18.7 µM (inactive) and the GI50 [49] was 16.7 µM (inactive).
